Read-outs that look alike come from different tables or passages of the source.
Legend:
Type in all cases: cell-based
[1] = tested on: human PBMC (human peripheral blood mononuclear cells); assay: PBMC screening assay: induction of TNF-α production; details: read-out: EC50 (μM) TNF-α (hPBMC)
Description: The payload compounds of Formula (II′) were assayed to evaluate the induction of TNF-α production in human PBMC (human peripheral blood mononuclear cells).
Human peripheral blood mononuclear cells (PBMC) were obtained from Allcells. […] PBMC were incubated for 24 hours at 37° C. in a 5% CO2 humidified incubator. The following day PBMC plates were centrifuged at 500×g for 5 minutes and the growth media was removed. 200 μL of compound prepared in growth media at a series of diluted concentrations ranging from 2.54 nM to 50 μM were added to PBMC in duplicate and incubated for 24 hours at 37° C. in a 5% CO2 incubator. Prior to supernatant harvest, cells were spun at 500×g for 5 minutes to remove cell debris. TNF-α activity was assessed in the supernatant by ELISA (Elabscience) per the manufacturer's instructions. Optical density at 450 nm (ELISA) was analyzed using a plate reader.

[2] = target: T1, hTLR7 (human Toll-like receptor 7) (Homo sapiens, UniProt Q9NYK1); assay: hTLR7 cell assay (HEK-Blue hTLR7 reporter cells); details: 24 hours, OD 650 nm
T1 construct: host or cells: HEK-Blue hTLR7 (HEK293-derived reporter cells)
T1 sequence (Q9NYK1 27-1049): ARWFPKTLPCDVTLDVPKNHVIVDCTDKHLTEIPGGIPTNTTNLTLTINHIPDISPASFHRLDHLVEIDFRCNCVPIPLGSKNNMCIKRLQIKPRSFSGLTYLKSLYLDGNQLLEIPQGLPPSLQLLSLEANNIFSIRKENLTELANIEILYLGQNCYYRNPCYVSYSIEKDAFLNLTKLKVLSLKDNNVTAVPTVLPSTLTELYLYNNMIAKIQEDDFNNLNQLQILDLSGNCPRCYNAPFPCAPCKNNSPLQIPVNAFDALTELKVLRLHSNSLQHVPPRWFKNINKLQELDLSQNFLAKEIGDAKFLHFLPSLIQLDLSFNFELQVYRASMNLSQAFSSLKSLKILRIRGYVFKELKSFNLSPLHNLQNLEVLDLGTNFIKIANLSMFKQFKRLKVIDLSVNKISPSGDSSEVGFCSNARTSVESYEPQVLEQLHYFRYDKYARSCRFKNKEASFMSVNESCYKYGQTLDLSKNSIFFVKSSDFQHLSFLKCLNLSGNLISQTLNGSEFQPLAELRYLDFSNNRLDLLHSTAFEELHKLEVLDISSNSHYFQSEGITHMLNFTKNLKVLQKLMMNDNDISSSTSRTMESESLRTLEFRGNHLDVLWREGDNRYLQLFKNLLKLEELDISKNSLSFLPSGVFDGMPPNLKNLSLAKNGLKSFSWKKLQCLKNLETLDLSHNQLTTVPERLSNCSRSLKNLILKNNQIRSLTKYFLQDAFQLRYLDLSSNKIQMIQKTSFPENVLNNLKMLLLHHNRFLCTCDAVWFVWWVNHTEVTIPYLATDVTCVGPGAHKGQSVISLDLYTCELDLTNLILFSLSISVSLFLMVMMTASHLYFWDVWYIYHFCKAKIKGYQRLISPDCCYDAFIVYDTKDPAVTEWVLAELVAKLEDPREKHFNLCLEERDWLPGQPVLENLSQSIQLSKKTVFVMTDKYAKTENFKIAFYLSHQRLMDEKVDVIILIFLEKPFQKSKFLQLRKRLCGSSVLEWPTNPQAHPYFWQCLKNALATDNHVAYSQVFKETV
Description: (§1) The payload compounds of Formula (II′) were assayed to evaluate their agonistic activity on hTLR7 (human Toll-like receptor 7) and hTLR8 (human Toll-like receptor 8). Reporter cells lines (HEK-Blue hTLR7 and HEK-Blue hTLR8) were obtained from InvivoGen. Cells were cryopreserved in liquid nitrogen per supplier's instruction. Upon test, the cells were thawed, passaged and cultured in the growth media of DMEM supplemented with 10% fetal bovine serum, 1×NEAA, 1 mM Pyruvate, 2 mM glutamine, […] in the presence of the following antibiotics, as shown as Table 1. Test compounds (at desired concentrations diluted) were added to the 96-well assay plate, 0.5 μL per well. Reporter cells were harvested from the tissue culture flasks by incubation in PBS at 37° C. for two minutes after the media in the flask is removed and cells rinsed with PBS. Cells were counted and diluted in the HEK-Blue Detection media at 50000 cells/mL and incubated for 24 hours at 37° C., in a 5% CO2 humidified incubator. Then 20 μL of cell supernatant were added to the assay plate containing the 180 µL of QUANTI-Blue, incubated for 1 hour at 37° C. Optical density at 650 nm was analyzed using an Envision (Perkin Elmer) plate reader.

[3] = target: T2, hTLR8 (human Toll-like receptor 8) (Homo sapiens, UniProt Q9NR97); assay: hTLR8 cell assay (HEK-Blue hTLR8 reporter cells); details: 24 hours, OD 650 nm
T2 construct: host or cells: HEK-Blue hTLR8 (HEK293-derived reporter cells)
T2 sequence (Q9NR97 27-1041): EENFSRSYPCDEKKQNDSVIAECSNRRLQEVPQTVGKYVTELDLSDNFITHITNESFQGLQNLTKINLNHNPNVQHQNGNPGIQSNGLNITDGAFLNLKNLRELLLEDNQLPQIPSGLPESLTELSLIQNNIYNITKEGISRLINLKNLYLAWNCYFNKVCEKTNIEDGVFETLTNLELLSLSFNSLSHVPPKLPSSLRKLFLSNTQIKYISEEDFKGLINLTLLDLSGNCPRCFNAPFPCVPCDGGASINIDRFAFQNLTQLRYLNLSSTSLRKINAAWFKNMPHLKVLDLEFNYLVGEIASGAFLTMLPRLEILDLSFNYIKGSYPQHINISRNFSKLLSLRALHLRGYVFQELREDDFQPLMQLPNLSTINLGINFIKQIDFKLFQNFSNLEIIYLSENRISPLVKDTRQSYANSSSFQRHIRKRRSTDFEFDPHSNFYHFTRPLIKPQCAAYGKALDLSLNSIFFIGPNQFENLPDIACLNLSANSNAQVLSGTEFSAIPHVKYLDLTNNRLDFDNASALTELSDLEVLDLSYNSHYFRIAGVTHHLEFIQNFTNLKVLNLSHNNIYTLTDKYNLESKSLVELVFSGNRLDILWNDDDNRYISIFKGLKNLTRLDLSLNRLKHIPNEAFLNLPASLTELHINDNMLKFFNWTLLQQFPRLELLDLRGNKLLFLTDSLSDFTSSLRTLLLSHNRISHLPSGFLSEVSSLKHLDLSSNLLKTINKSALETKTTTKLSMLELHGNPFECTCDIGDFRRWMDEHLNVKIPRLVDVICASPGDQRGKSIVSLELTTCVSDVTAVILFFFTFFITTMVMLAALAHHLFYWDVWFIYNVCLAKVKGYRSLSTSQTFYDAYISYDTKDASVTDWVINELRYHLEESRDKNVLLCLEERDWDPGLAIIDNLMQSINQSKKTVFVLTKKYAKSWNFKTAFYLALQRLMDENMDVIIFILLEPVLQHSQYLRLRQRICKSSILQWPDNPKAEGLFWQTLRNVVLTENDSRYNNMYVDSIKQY
Description: as §1

[4] = human PBMC, 24 hours, TNF-α by ELISA, class symbols

For `CCOCc1nc2c(N)nc3cc(Cc4ccc(CCN)cc4)ccc3c2n1CC(C)(C)O` [Compound 2, 1-(4-amino-7-(4-(2-aminoethyl)benzyl)-2-(ethoxymethyl)-1H-imidazo[4,5-c]quinolin-1-yl)-2-methylpropan-2-ol], the EC50 ([1]; Homo sapiens, PBMC, 24 h) was > 0.64 µM, the EC50 [2] was 1000 to 10000 nM and the EC50 [3] was 5000 to 20000 nM.

For `CCOCc1nc2c(N)nc3cc(Cc4ccc(CCCN)cc4)ccc3c2n1CC(C)(C)O` [Compound 3, 1-(4-amino-7-(4-(3-aminopropyl)benzyl)-2-(ethoxymethyl)-1H-imidazo[4,5-c]quinolin-1-yl)-2-methylpropan-2-ol], the EC50 ([1]; Homo sapiens, PBMC, 24 h) was > 0.64 µM, the EC50 [2] was 1000 to 10000 nM and the EC50 [3] was 5000 to 20000 nM.

`CCOCc1nc2c(N)nc3cc(Cc4cccc(CN)c4)ccc3c2n1CC(C)(C)O` [Compound 4, 1-(4-amino-7-(3-(aminomethyl)benzyl)-2-(ethoxymethyl)-1H-imidazo[4,5-c]quinolin-1-yl)-2-methylpropan-2-ol] was tested, and the EC50 ([1]; Homo sapiens, PBMC, 24 h) was > 0.64 µM, the EC50 [2] was < 1000 nM and the EC50 [3] was < 5000 nM.

With `CCC[C@@H](C)c1nc2c(N)nc3cc(Cc4ccc(CCN)cc4)ccc3c2n1CC(C)(C)O` [Compound 9, (R)-1-(4-amino-7-(4-(2-aminoethyl)benzyl)-2-(pentan-2-yl)-1H-imidazo[4,5-c]quinolin-1-yl)-2-methylpropan-2-ol] the EC50 ([1]; Homo sapiens, PBMC, 24 h) was < 0.64 µM, the EC50 [2] was > 10000 nM and the EC50 [3] was > 20000 nM.

In the case of `CCCCc1nc2c(N)nc3cc(Cc4ccc(CCCN)cc4)ccc3c2n1CC(C)(C)O` [Compound 15, 1-(4-amino-7-(4-(3-aminopropyl)benzyl)-2-butyl-1H-imidazo[4,5-c]quinolin-1-yl)-2-methylpropan-2-ol], the EC50 [1, 4] is reported as < 0.64 µM, the EC50 [2] is reported as 1000 to 10000 nM and the EC50 [3] is reported as < 5000 nM.

For `CCCCc1nc2c(N)nc3cc(Cc4cccc(CN)c4)ccc3c2n1CC(C)(C)O` [Compound 16, 1-(4-amino-7-(3-(aminomethyl)benzyl)-2-butyl-1H-imidazo[4,5-c]quinolin-1-yl)-2-methylpropan-2-ol], the EC50 [1, 4] was < 0.64 µM, the EC50 [2] was < 1000 nM and the EC50 [3] was < 5000 nM.

With `CCCCc1nc2c(N)nc3cc(Cc4cccc(CCN)c4)ccc3c2n1CC(C)(C)O` [Compound 17, 1-(4-amino-7-(3-(2-aminoethyl)benzyl)-2-butyl-1H-imidazo[4,5-c]quinolin-1-yl)-2-methylpropan-2-ol] the EC50 [1, 4] was > 0.64 µM, the EC50 [2] was < 1000 nM and the EC50 [3] was < 5000 nM.

For `CCCCc1nc2c(N)nc3cc(Cc4cccc(CCCN)c4)ccc3c2n1CC(C)(C)O` [Compound 18, 1-(4-amino-7-(3-(3-aminopropyl)benzyl)-2-butyl-1H-imidazo[4,5-c]quinolin-1-yl)-2-methylpropan-2-ol], the EC50 ([1]; Homo sapiens, PBMC, 24 h) was > 0.64 µM, the EC50 [2] was < 1000 nM and the EC50 [3] was 5000 to 20000 nM.

With `CCCCc1nc2c(N)nc3cc(Cc4ccc(CCN)cc4)ccc3c2n1CC(C)(C)O` [Compound 19, 1-(4-amino-7-(4-(2-aminoethyl)benzyl)-2-butyl-1H-imidazo[4,5-c]quinolin-1-yl)-2-methylpropan-2-ol] the EC50 ([1]; Homo sapiens, PBMC, 24 h) was < 0.64 µM, the EC50 [2] was < 1000 nM and the EC50 [3] was < 5000 nM.

With `CCCCc1nc2c(N)nc3cc(Cc4cccc(CNC)c4)ccc3c2n1CC(C)(C)O` [Compound 20, 1-(4-amino-2-butyl-7-(3-((methylamino)methyl)benzyl)-1H-imidazo[4,5-c]quinolin-1-yl)-2-methylpropan-2-ol] the EC50 [1, 4] was < 0.64 µM, the EC50 [2] was < 1000 nM and the EC50 [3] was < 5000 nM.

`CCOCc1nc2c(N)nc3cc(Cc4ccccc4)ccc3c2n1CC(C)(C)OCCN` [Compound 23, 1-(2-(2-aminoethoxy)-2-methylpropyl)-7-benzyl-2-(ethoxymethyl)-1H-imidazo[4,5-c]quinolin-4-amine] was tested, and the EC50 [1, 4] was > 0.64 µM, the EC50 [2] was 1000 to 10000 nM and the EC50 [3] was < 5000 nM.

`CCC[C@@H](C)c1nc2c(N)nc3cc(Cc4ccccc4)ccc3c2n1CC(C)(C)OCCN` [Compound 30, (R)-1-(2-(2-aminoethoxy)-2-methylpropyl)-7-benzyl-2-(pentan-2-yl)-1H-imidazo[4,5-c]quinolin-4-amine] was tested, and the EC50 [1, 4] was > 0.64 µM, the EC50 [2] was 1000 to 10000 nM and the EC50 [3] was < 5000 nM.

For `CCCC(C)c1nc2c(N)nc3cc(Cc4ccccc4)ccc3c2n1CC(C)(C)OCCCN` (stereo not shown) [Compound 32, 1-(2-(3-aminopropoxy)-2-methylpropyl)-7-benzyl-2-(pentan-2-yl)-1H-imidazo[4,5-c]quinolin-4-amine], the EC50 [1, 4] was > 0.64 µM, the EC50 [2] was 1000 to 10000 nM and the EC50 [3] was < 5000 nM.

For `CCOCc1nc2c(N)nc3cc(Cc4ccccc4)ccc3c2n1CC1(OCCN)CC1` [Compound 44], the EC50 ([1]; Homo sapiens, PBMC, 24 h) was > 0.64 µM, the EC50 [2] was 1000 to 10000 nM and the EC50 [3] was < 5000 nM.

For `CC(C)(O)Cn1c(CCCC(F)(F)F)nc2c(N)nc3cc(Cc4cccc(CN)c4)ccc3c21` [Compound 51, 1-(4-amino-7-(3-(aminomethyl)benzyl)-2-(4,4,4-trifluorobutyl)-1H-imidazo[4,5-c]quinolin-1-yl)-2-methylpropan-2-ol], the EC50 [1, 4] was > 0.64 µM, the EC50 [2] was < 1000 nM and the EC50 [3] was < 5000 nM.

With `CCOCc1nc2c(N)nc3cc(Cc4ccccc4)ccc3c2n1CC(C)(C)O` [Compound 171, 1-(4-amino-7-benzyl-2-(ethoxymethyl)-1H-imidazo[4,5-c]quinolin-1-yl)-2-methylpropan-2-ol] the EC50 [1, 4] was < 0.64 µM.

Source: patent US20250325687A1, “CONJUGATE COMPRISING TOLL-LIKE RECEPTOR AGONIST” (MABSOFT THERAPEUTICS (SHANGHAI) CO., LTD., priority 2022, published 2025)
